The values that follow come from patent US9834558B2, “Substituted bridged urea analogs as sirtuin modulators” (GLAXOSMITHKLINE LLC, priority 2013, dated 2017).

This test has as its target T1, SIRT1 (Homo sapiens, UniProt Q96EB6).
T1 sequence (Q96EB6 1-747): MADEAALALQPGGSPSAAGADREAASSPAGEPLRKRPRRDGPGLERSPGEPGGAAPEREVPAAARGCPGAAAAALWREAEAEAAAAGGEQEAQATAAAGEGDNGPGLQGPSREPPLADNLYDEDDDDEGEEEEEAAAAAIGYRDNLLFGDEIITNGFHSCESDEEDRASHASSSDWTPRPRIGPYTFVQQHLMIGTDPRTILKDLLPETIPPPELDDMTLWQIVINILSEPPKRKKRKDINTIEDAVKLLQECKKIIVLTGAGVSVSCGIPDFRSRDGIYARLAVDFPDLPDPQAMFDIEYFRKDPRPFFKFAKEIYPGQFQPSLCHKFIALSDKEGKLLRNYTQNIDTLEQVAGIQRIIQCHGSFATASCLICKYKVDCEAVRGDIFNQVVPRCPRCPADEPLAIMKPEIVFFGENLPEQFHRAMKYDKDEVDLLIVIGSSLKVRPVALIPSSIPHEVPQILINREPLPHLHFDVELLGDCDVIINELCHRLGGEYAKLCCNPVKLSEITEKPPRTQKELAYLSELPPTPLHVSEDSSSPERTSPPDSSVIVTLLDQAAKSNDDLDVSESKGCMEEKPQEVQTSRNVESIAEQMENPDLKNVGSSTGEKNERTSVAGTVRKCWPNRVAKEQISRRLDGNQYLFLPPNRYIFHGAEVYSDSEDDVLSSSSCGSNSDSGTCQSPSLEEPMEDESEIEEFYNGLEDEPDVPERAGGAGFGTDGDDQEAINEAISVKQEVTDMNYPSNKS
Put plainly: Trp mass spectrometry assay of SIRT1 activation. The following applies: Trp peptide assay; for TRP Activity (EC1.5): EC1.5 = concentration that results in 150% activation of SIRT1; for Emax: maximum activity relative to control (100%), read-out: TRP MAX RESP (percent maximum fold activation). In kind it is biochemical. An excerpt: Mass spectrometry based assays were used to identify modulators of SIRT1 activity. […] The peptide was labeled with the fluorophore STMR (excitation 540 nm/emission 580 nm) at the C-terminus. The sequence of the peptide substrate was based on p53 with several modifications. In addition, the methionine residue naturally present in the sequence was replaced with the norleucine because the methionine may be susceptible to oxidation during synthesis and purification. The Trp based assay utilized a peptide having an amino acid residues as follows: Ac-R-H-K-K(Ac)-W-NH2 (SEQ ID NO: 2).
The Trp mass spectrometry assay was conducted as follows. 0.5 μM peptide substrate and 120 μM βNAD^+ were incubated with 10 nM SIRT1 for 25 minutes at 25° C. in a reaction buffer (50 mM HEPES pH 7.5, […], 1 mM DTT, 0.05% BSA). The SIRT1 protein was obtained by cloning the SirT1 gene into a T7-promoter containing vector, which was then expressed in BL21(DE3) bacterial cells and purified as described in further detail below. Test compound was added at varying concentrations to this reaction mixture and the resulting reactions were monitored. After the 25 minute incubation with SIRT1, 10 μL of 10% formic acid was added to stop the reaction. The resulting reactions were sealed and frozen for later mass spec analysis. The relative SIRT1 activity was then determined by measuring the amount of O-acetyl-ADP-ribose (OAADPR) formed (or, alternatively, the amount of deacetylated Trp peptide generated) by the NAD-dependent sirtuin deacetylation reaction in the presence of varying concentrations of the test compound versus control reactions lacking the test compound. The degree to which the test agent activated deacetylation by SIRT1 was expressed as EC1.5 (i.e., the concentration of compound required to increase SIRT1 activity by 50% over the control lacking test compound), and Percent Maximum Activation (i.e., the maximum activity relative to control (100%) obtained for the test compound).
This time point was the same as that used for test compounds and, within the linear range, the endpoint represents a change in velocity.
For the above assay, SIRT1 protein was expressed and purified as follows. The SirT1 gene was cloned into a T7-promoter containing vector and transformed into BL21(DE3). The protein was expressed by induction with 1 mM IPTG as an N-terminal His-tag fusion protein at 18° C. overnight and harvested at 30,000×g. Cells were lysed with lysozyme in lysis buffer (50 mM Tris-HCl, 2 mM Tris[2-carboxyethyl]phosphine (TCEP), 10 μM ZnCl2, 200 mM NaCl) and further treated with sonication for 10 min for complete lysis. The protein was purified over a Ni-NTA column (Amersham) and fractions containing pure protein were pooled, concentrated and run over a sizing column (Sephadex S200 26/60 global). The peak containing soluble protein was collected and run on an Ion-exchange column (MonoQ). Gradient elution (200 mM-500 mM NaCl) yielded pure protein. This protein was concentrated and dialyzed against dialysis buffer (20 mM Tris-HCl, 2 mM TCEP) overnight. The protein was aliquoted and frozen at −80° C. until further use.
“NT” means not tested; “ND” means not determinable.

Regarding `CC1(C)CN(c2ccc3c(n2)N(C(=O)Nc2cnccn2)[C@H]2CCN3C2)CCO1` [(9S)-5-(2,2-dimethylmorpholin-4-yl)-N-(pyrazin-2-yl)-1,6,8-triazatricyclo[7.2.1.0 {2,7}]dodeca-2(7),3,5-triene-8-carboxamide], the “TRP Activity (EC1.5)” value is on record as “A (A (EC1.5<1 μM))” and the Emax is over 150%.
On to `Cc1cc(-c2ccc3c(n2)N(C(=O)Nc2cnccn2)[C@H]2CCN3C2)c(C)cn1` [(9S)-5-(2,5-dimethylpyridin-4-yl)-N-(pyrazin-2-yl)-1,6,8-triazatricyclo[7.2.1.0 {2,7}]dodeca-2,4,6-triene-8-carboxamide], for which the “TRP Activity (EC1.5)” value is listed as “B (B (EC1.5 1-25 μM))” and the Emax is over 150%.
For `Cc1ccc(-c2ccc3c(n2)N(C(=O)Nc2cnccn2)[C@H]2CCN3C2)c(C)n1` [(9S)-5-(2,6-dimethylpyridin-3-yl)-N-(pyrazin-2-yl)-1,6,8-triazatricyclo[7.2.1.0 {2,7}]dodeca-2(7),3,5-triene-8-carboxamide], the “TRP Activity (EC1.5)” value is “B (B (EC1.5 1-25 μM))” and the Emax was over 150%.
On the same counts, the results for `Cc1ccc(-c2ccc3c(n2)N(C(=O)Nc2cccnc2)[C@H]2CCN3C2)c(C)n1` [(9S)-5-(2,6-dimethylpyridin-3-yl)-N-(pyridin-3-yl)-1,6,8-triazatricyclo[7.2.1.0 {2,7}]dodeca-2(7),3,5-triene-8-carboxamide] are “B (B (EC1.5 1-25 μM))” and over 150%.
For the compound `Cc1cc(-c2ccc3c(n2)N(C(=O)Nc2cnccn2)[C@H]2CCN3C2)cc(C)n1` [(9S)-5-(2,6-dimethylpyridin-4-yl)-N-(pyrazin-2-yl)-1,6,8-triazatricyclo[7.2.1.0^{2,7}]dodeca-2,4,6-triene-8-carboxamide], the “TRP Activity (EC1.5)” value is given as “A (A (EC1.5<1 μM))” and the Emax is over 150%.
Take `O=C(Nc1cnccn1)N1c2nc(N3CCOC(C4CC4)C3)ccc2N2CC[C@H]1C2` (stereo partly drawn) [(9S)-5-(2-cyclopropylmorpholin-4-yl)-N-(pyrazin-2-yl)-1,6,8-triazatricyclo[7.2.1.0 {2,7}]dodeca-2,4,6-triene-8-carboxamide]: the “TRP Activity (EC1.5)” value is reported as “B (B (EC1.5 1-25 μM))” and the Emax is over 150%.
Consider `O=C(Nc1cnccn1)N1c2nc(-c3ccnc(C4CC4)c3)ccc2N2CC[C@H]1C2` [(9S)-5-(2-cyclopropylpyridin-4-yl)-N-(pyrazin-2-yl)-1,6,8-triazatricyclo[7.2.1.0 {2,7}]dodeca-2,4,6-triene-8-carboxamide], for which the “TRP Activity (EC1.5)” value was “A (A (EC1.5<1 μM))” and the Emax was over 150%.
Turning to `CCOc1cc(-c2ccc3c(n2)N(C(=O)Nc2cnccn2)[C@H]2CCN3C2)ccn1` [(9S)-5-(2-ethoxypyridin-4-yl)-N-(pyrazin-2-yl)-1,6,8-triazatricyclo[7.2.1.0 {2,7}]dodeca-2(7),3,5-triene-8-carboxamide], the “TRP Activity (EC1.5)” value is recorded as “B (B (EC1.5 1-25 μM))” and the Emax was over 150%.
Taken in the same sequence, the figures for `CCc1cc(-c2ccc3c(n2)N(C(=O)Nc2cnccn2)[C@H]2CCN3C2)ccn1` [(9S)-5-(2-ethylpyridin-4-yl)-N-(pyrazin-2-yl)-1,6,8-triazatricyclo[7.2.1.0 {2,7}]dodeca-2(7),3,5-triene-8-carboxamide] were “A (A (EC1.5<1 μM))” and over 150%.
On to `COc1cc(-c2ccc3c(n2)N(C(=O)Nc2cnccn2)[C@H]2CCN3C2)cc(C)n1` [(9S)-5-(2-methoxy-6-methylpyridin-4-yl)-N-(pyrazin-2-yl)-1,6,8-triazatricyclo[7.2.1.0 {2,7}]dodeca-2(7),3,5-triene-8-carboxamide], for which the “TRP Activity (EC1.5)” value is recorded as “A (A (EC1.5<1 μM))” and the Emax was over 150%.
Turning to `COc1cc(-c2ccc3c(n2)N(C(=O)Nc2cnccn2)[C@H]2CCN3C2)ccn1` [(9S)-5-(2-methoxypyridin-4-yl)-N-(pyrazin-2-yl)-1,6,8-triazatricyclo[7.2.1.0 {2,7}]dodeca-2(7),3,5-triene-8-carboxamide], the “TRP Activity (EC1.5)” value is “B (B (EC1.5 1-25 μM))” and the Emax was over 150%.
On the same counts, the results for `Cc1ncc(-c2ccc3c(n2)N(C(=O)Nc2cnccn2)[C@H]2CCN3C2)o1` [(9S)-5-(2-methyl-1,3-oxazol-5-yl)-N-(pyrazin-2-yl)-1,6,8-triazatricyclo[7.2.1.0 {2,7}]dodeca-2(7),3,5-triene-8-carboxamide] are “B (B (EC1.5 1-25 μM))” and over 150%.
Taken in the same sequence, the figures for `Cc1ncc(-c2ccc3c(n2)N(C(=O)Nc2cnccn2)[C@H]2CCN3C2)s1` [(9S)-5-(2-methyl-1,3-thiazol-5-yl)-N-(pyrazin-2-yl)-1,6,8-triazatricyclo[7.2.1.0 {2,7}]dodeca-2(7),3,5-triene-8-carboxamide] were “B (B (EC1.5 1-25 μM))” and over 150%.
Turning to `Cc1cc(-c2ccc3c(n2)N(C(=O)N2CCOCC2)[C@H]2CCN3C2)ccn1` [(9S)-5-(2-methylpyridin-4-yl)-8-[(morpholin-4-yl)carbonyl]-1,6,8-triazatricyclo[7.2.1.0 {2,7}]dodeca-2,4,6-triene], the “TRP Activity (EC1.5)” value is reported as “C (C (EC1.5>25 μM))” and the Emax is under 150%.
As for `Cc1cc(-c2ccc3c(n2)N(C(=O)N2CCCCC2)[C@H]2CCN3C2)ccn1` [(9S)-5-(2-methylpyridin-4-yl)-8-[(piperidin-1-yl)carbonyl]-1,6,8-triazatricyclo[7.2.1.0 {2,7}]dodeca-2,4,6-triene], the “TRP Activity (EC1.5)” value was “C (C (EC1.5>25 μM))” and the Emax is under 150%.
In the case of `Cc1cc(-c2ccc3c(n2)N(C(=O)N2CCCC2)[C@H]2CCN3C2)ccn1` [(9S)-5-(2-methylpyridin-4-yl)-8-[(pyrrolidin-1-yl)carbonyl]-1,6,8-triazatricyclo[7.2.1.0 {2,7}]dodeca-2,4,6-triene], the “TRP Activity (EC1.5)” value is recorded as “C (C (EC1.5>25 μM))” and the Emax is under 150%.
As for `Cc1cc(-c2ccc3c(n2)N(C(=O)N2CC[C@@H](C)C2)[C@H]2CCN3C2)ccn1` [(9S)-5-(2-methylpyridin-4-yl)-8-{[(3R)-3-methylpyrrolidin-1-yl]carbonyl}-1,6,8-triazatricyclo[7.2.1.0 {2,7}]dodeca-2,4,6-triene], the “TRP Activity (EC1.5)” value is listed as “C (C (EC1.5>25 μM))” and the Emax was under 150%.
On to `Cc1cc(-c2ccc3c(n2)N(C(=O)Nc2c[nH]nn2)[C@H]2CCN3C2)ccn1` [(9S)-5-(2-methylpyridin-4-yl)-N-(1H-1,2,3-triazol-4-yl)-1,6,8-triazatricyclo[7.2.1.0 {2,7}]dodeca-2(7),3,5-triene-8-carboxamide], for which the “TRP Activity (EC1.5)” value is recorded as “B (B (EC1.5 1-25 μM))” and the Emax was over 150%.
